Measurements taken from patent US20240254139A1, “FUSED ISOXAZOLYL COMPOUNDS AS KAT6A INHIBITORS” (Aurigene Oncology Limited, priority 2021, published 2024).

Molecular target: T1, human-KAT6A (MYST domain 507-778 aa) (Homo sapiens, UniProt Q92794)
T1 construct: human-KAT6A (MYST domain 507-778 aa)
Test: KAT6A biochemical assay (TR-FRET)
Details: for inhibition at 1 µM: compound at 1 μM, percent inhibition of internal assay controls; for IC50: dose-response, sigmoidal curve fit, groups A, B, C
From the text: A TR-FRET based method was used for assaying compounds of the invention for KAT6A enzyme inhibitory activity. TR-FRET is homogeneous proximity assay where Europium-labelled anti-acetyl lysine antibody binds to the acetylated substrate labelled with biotin which in turn binds to streptavidin labelled APC fluorescence acceptor. Europium can transfer energy to APC in the complex and the interaction of two dye-labelled binding partners is detected by the energy transfer between a donor and an acceptor dye, and the subsequent light emission by the acceptor dye. KAT6A transfer an acetyl group from acetyl CoA to lysine amino acids of histones/target proteins. Typically, 5 μL of human-KAT6A (MYST domain 507-778 aa) in assay buffer (100 mM Tris HCl (pH 7.8), 15 mM NaCl, 1 mM EDTA, 0.01% Tween-20, 0.02% BSA, 1 mM DTT) is added to a 384-well plate containing 5 μL of selected test compound in final 1% DMSO, serially diluted in 1:3 in an 8-10-point titration. The selected compound of the present invention and enzyme are incubated for 30 min at room temperature. Next, 5 μL of substrate mix containing histone H4 peptide and acetyl-CoA in assay buffer is added to the plate. The final concentrations of H4 peptide and acetyl-CoA are 200 nM and 600 nM respectively. Following 30 min reaction at room temperature, 5 μL of detection mix containing Europium labelled anti-acetyl antibody and streptavidin-APC is added to the reaction wells. Plate is further incubated for 45 min at room temperature and is read in TR-FRET mode (Ex: 340 nm; Em: 615 nm and 665 nm) on a plate reader.
Selected compounds of the present invention were screened in the above-mentioned assay procedure and IC50 values were determined by fitting the dose-response data to sigmoidal curve fitting equation using Graph pad prism software V8. […]

T1 sequence (Q92794 507-778): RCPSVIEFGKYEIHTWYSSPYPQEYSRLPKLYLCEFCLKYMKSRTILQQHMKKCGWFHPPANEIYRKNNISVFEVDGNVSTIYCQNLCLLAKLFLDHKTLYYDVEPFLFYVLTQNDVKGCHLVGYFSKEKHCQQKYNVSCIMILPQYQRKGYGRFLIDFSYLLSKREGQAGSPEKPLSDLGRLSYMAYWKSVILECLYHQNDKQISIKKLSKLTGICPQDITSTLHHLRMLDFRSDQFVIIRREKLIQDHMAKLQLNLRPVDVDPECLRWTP

inhibition at 1 µM	IC50	inhibition at 10 µM (compound at 10 μM (stated in the cell), read-out: Percent Inhibition (at 10 μM))	Structure (SMILES)
100%	< 100 nM		COc1cccc(OC)c1S(=O)(=O)Nc1noc2nc(-c3ccccc3)cc(OC)c12 [Compound 1, 2,6-dimethoxy-N-(4-methoxy-6-phenylisoxazolo[5,4-b]pyridin-3-yl)benzenesulfonamide]
100%	< 100 nM		COc1cccc(OC)c1S(=O)(=O)Nc1noc2nc(-c3ccccc3)nc(OC)c12 [Compound 2, 2,6-dimethoxy-N-(4-methoxy-6-phenylisoxazolo[5,4-d]pyrimidin-3-yl)benzenesulfonamide]
96%	110 to 200 nM		COc1cccc(OC)c1S(=O)(=O)Nc1noc2cc(-c3ccccc3)nc(OC)c12 [Compound 3, 2,6-dimethoxy-N-(4-methoxy-6-phenylisoxazolo[4,5-c]pyridin-3-yl)benzenesulfonamide]
23%			COc1cccc(OC)c1S(=O)(=O)Nc1noc2cc(-c3ccccc3)n(C)c(=O)c12 [Compound 4, 2,6-dimethoxy-N-(5-methyl-4-oxo-6-phenyl-4,5-dihydroisoxazolo[4,5-c]pyridin-3-yl)benzenesulfonamide]
52%	< 100 nM		COc1cc(-c2ccccc2)nc2onc(NS(=O)(=O)c3ccccc3-c3ccccc3)c12 [Compound 5, N-(4-methoxy-6-phenylisoxazolo[5,4-b]pyridin-3-yl)-[1,1′-biphenyl]-2-sulfonamide]
		58%	COc1cccc(OC)c1S(=O)(=O)Nc1noc2cc(-c3ccccc3)cnc12 [Compound 6, 2,6-dimethoxy-N-(6-phenylisoxazolo[4,5-b]pyridin-3-yl)benzenesulfonamide]
25%			COc1cc(-c2ccccc2)nc2onc(NS(=O)(=O)c3ccccc3OC(F)(F)F)c12 [Compound 7, N-(4-methoxy-6-phenylisoxazolo[5,4-b]pyridin-3-yl)-2-(trifluoromethoxy)benzenesulfonamide]
82%	110 to 200 nM		COc1ccccc1S(=O)(=O)Nc1noc2nc(-c3ccccc3)cc(OC)c12 [Compound 8, 2-methoxy-N-(4-methoxy-6-phenylisoxazolo[5,4-b]pyridin-3-yl)benzenesulfonamide]
62%	> 200 nM		CCOc1ccccc1S(=O)(=O)Nc1noc2nc(-c3ccccc3)cc(OC)c12 [Compound 9, 2-ethoxy-N-(4-methoxy-6-phenylisoxazolo[5,4-b]pyridin-3-yl)benzenesulfonamide]
100%	< 100 nM		COc1ccccc1-c1cc(OC)c2c(NS(=O)(=O)c3c(OC)cccc3OC)noc2n1 [Compound 10, 2,6-dimethoxy-N-(4-methoxy-6-(2-methoxyphenyl)isoxazolo[5,4-b]pyridin-3-yl)benzenesulfonamide]
12%			COc1cccc(OC)c1S(=O)(=O)Nc1noc2cc(-c3ccccc3)ncc12 [Compound 11, 2,6-dimethoxy-N-(6-phenylisoxazolo[4,5-c]pyridin-3-yl)benzenesulfonamide]
54%			COc1cccc(OC)c1S(=O)(=O)Nc1noc2nc(N3CCCCC3)cc(OC)c12 [Compound 12, 2,6-dimethoxy-N-(4-methoxy-6-(piperidin-1-yl)isoxazolo[5,4-b]pyridin-3-yl)benzenesulfonamide]
97%	110 to 200 nM		COc1cccc(OC)c1S(=O)(=O)Nc1noc2nc(N3CCCC3)cc(OC)c12 [Compound 13, 2,6-dimethoxy-N-(4-methoxy-6-(pyrrolidin-1-yl)isoxazolo[5,4-b]pyridin-3-yl)benzenesulfonamide]
49%			COc1cccc(OC)c1S(=O)(=O)Nc1noc2nc(N3CCOCC3)cc(OC)c12 [Compound 14, 2,6-dimethoxy-N-(4-methoxy-6-morpholinoisoxazolo[5,4-b]pyridin-3-yl)benzenesulfonamide]
59%	> 200 nM		COc1cccc(OC)c1S(=O)(=O)Nc1noc2nc(N(C)C)cc(OC)c12 [Compound 15, N-(6-(dimethylamino)-4-methoxyisoxazolo[5,4-b]pyridin-3-yl)-2,6-dimethoxybenzenesulfonamide]
100%	110 to 200 nM		COc1cccc(OC)c1S(=O)(=O)Nc1noc2nc(N3CCC3)cc(OC)c12 [Compound 16, N-(6-(azetidin-1-yl)-4-methoxyisoxazolo[5,4-b]pyridin-3-yl)-2,6-dimethoxybenzenesulfonamide]

inhibition at 1 µM	IC50	inhibition at 10 µM (compound at 10 μM (stated in the cell), read-out: Percent Inhibition (at 10 μM))	Structure (SMILES)
100%	110 to 200 nM		COc1cccc(OC)c1S(=O)(=O)Nc1noc2nc(N3CC(OC)C3)cc(OC)c12 [Compound 17, 2,6-dimethoxy-N-(4-methoxy-6-(3-methoxyazetidin-1-yl)isoxazolo[5,4-b]pyridin-3-yl)benzenesulfonamide]
100%	< 100 nM		COc1cccc(OC)c1S(=O)(=O)Nc1noc2nc(N3CCC(F)(F)C3)cc(OC)c12 [Compound 18, N-(6-(3,3-difluoropyrrolidin-1-yl)-4-methoxyisoxazolo[5,4-b]pyridin-3-yl)-2,6-dimethoxybenzenesulfonamide]
92%	110 to 200 nM		COc1cccc(OC)c1S(=O)(=O)Nc1noc2nc(N3CCC(OC)C3)cc(OC)c12 (stereo not shown) [Compound 19, 2,6-dimethoxy-N-(4-methoxy-6-(3-methoxypyrrolidin-1-yl)isoxazolo[5,4-b]pyridin-3-yl)benzenesulfonamide]
14%			COc1cccc(OC)c1S(=O)(=O)Nc1noc2ncncc12 [Compound 20, N-(isoxazolo[5,4-d]pyrimidin-3-yl)-2,6-dimethoxybenzenesulfonamide]
11%			COc1cccc(OC)c1S(=O)(=O)Nc1noc2cnccc12 [Compound 21, N-(isoxazolo[5,4-c]pyridin-3-yl)-2,6-dimethoxybenzenesulfonamide]
12%			COc1cccc(OC)c1S(=O)(=O)Nc1noc2nccnc12 [Compound 22, N-(isoxazolo[4,5-b]pyrazin-3-yl)-2,6-dimethoxybenzenesulfonamide]
13%			COc1cccc(OC)c1S(=O)(=O)Nc1noc2ncccc12 [Compound 24, N-(isoxazolo[5,4-b]pyridin-3-yl)-2,6-dimethoxybenzenesulfonamide]
30%			COc1cc(-c2ccccc2)nc2onc(NS(=O)(=O)c3c(F)cccc3F)c12 [Compound 25, 2,6-difluoro-N-(4-methoxy-6-phenylisoxazolo[5,4-b]pyridin-3-yl)benzenesulfonamide]
23%			COc1cc(-c2ccccc2)nc2onc(NS(=O)(=O)c3ccccc3F)c12 [Compound 26, 2-fluoro-N-(4-methoxy-6-phenylisoxazolo[5,4-b]pyridin-3-yl)benzenesulfonamide]
17%			COc1cccc(OC)c1S(=O)(=O)Nc1noc2nc(N(C)C3CCCCC3)cc(OC)c12 [Compound 27, N-(6-(cyclohexyl(methyl)amino)-4-methoxyisoxazolo[5,4-b]pyridin-3-yl)-2,6-dimethoxybenzenesulfonamide]
80%	> 200 nM		COc1cccc(OC)c1S(=O)(=O)Nc1noc2nc(N3CC(F)(F)C3)cc(OC)c12 [Compound 28, N-(6-(3,3-difluoroazetidin-1-yl)-4-methoxyisoxazolo[5,4-b]pyridin-3-yl)-2,6-dimethoxybenzenesulfonamide]
38%			COc1ccc(CN(C)c2cc(OC)c3c(NS(=O)(=O)c4c(OC)cccc4OC)noc3n2)cc1 [Compound 29, 2,6-dimethoxy-N-(4-methoxy-6-((4-methoxybenzyl)(methyl)amino)isoxazolo[5,4-b]pyridin-3-yl)benzenesulfonamide]
56%			CCN(Cc1ccc(OC)cc1)c1cc(OC)c2c(NS(=O)(=O)c3c(OC)cccc3OC)noc2n1 [Compound 30, N-(6-(ethyl(4-methoxybenzyl)amino)-4-methoxyisoxazolo[5,4-b]pyridin-3-yl)-2,6-dimethoxybenzenesulfonamide]
	< 100 nM		COc1cccc(OC)c1S(=O)(=O)Nc1noc2nc(-c3ccsc3)cc(OC)c12 [Compound 31, 2,6-dimethoxy-N-(4-methoxy-6-(thiophen-3-yl)isoxazolo[5,4-b]pyridin-3-yl)benzenesulfonamide]
	110 to 200 nM		COc1cccc(OC)c1S(=O)(=O)Nc1noc2nc(C3=CCCC3)cc(OC)c12 [Compound 32, N-(6-(cyclopent-1-en-1-yl)-4-methoxyisoxazolo[5,4-b]pyridin-3-yl)-2,6-dimethoxybenzenesulfonamide]
	< 100 nM		CCc1ccc(OC)c(S(=O)(=O)Nc2noc3nc(-c4ccccc4)cc(OC)c23)c1 [Compound 33, 5-ethyl-2-methoxy-N-(4-methoxy-6-phenylisoxazolo[5,4-b]pyridin-3-yl)benzenesulfonamide]
